Experimental data published in US5190934A, “P-subsituted propane-phosphinic acid compounds” (Ciba-Geigy Corporation, priority 1989, dated 1993).

System: "epileptic"-like discharges of pyramidal cells
Assay: Penicilline-induced "epileptic" hippocampal slice preparation
Format: cell-based
Details: baclofen at 6 μM
Procedure: The GABAB antagonists of the present invention interact at the GABAB receptor with IC50 values starting from about 10^-7 M (moles/liter) in rat brain cortex membranes. […] The antagonism against baclofen has also been shown in in vitro electrophysiological models, such as the penicilline-induced "epileptic" hippocampal slice preparation, where baclofen, at a concentration of 6 μM inhibits "epileptic"-like discharges of pyramidal cells. The compounds of the invention antagonise the effects of baclofen at concentrations from approximately 10 to approximately 100 μM. In vivo, antagonism has been shown by ionophoresis of baclofen on rat cerebral cortex, and systemic application of antagonists in doses of 10-100 mg/kg. The muscle relaxant effects of baclofen measured in the rotarod model are also antagonized at doses of about 30 mg/kg i.p.

In the case of `NCC(CC(=O)O)c1ccc(Cl)cc1` (stereo not shown) [baclofen], the “effect on "epileptic"-like discharges of pyramidal cells” value is reported as “inhibits”.
